Test results from patent US20230181612A1, “AMINOGLYCOSIDE DERIVATIVES AND USES THEREOF IN TREATING GENETIC DISORDERS” (ELOXX PHARMACEUTICALS LTD., priority 2017, published 2023).
“Also recorded” adds a separate entry of the source. Blank lines part the entries; values can stand above or below the molecule they belong to.

Tests used:
human fibroblast cells = conditions: cited from earlier work
eukaryotic ribosome = assay: Eukaryotic in vitro translation inhibition (TNT T7 Quick Coupled Transcription/Translation System, luciferase); format: biochemical; conditions: for IC50: eukaryotic in vitro translation, 30 °C, 60 minutes
Description: The Set1 and Set2 compounds as described in Example 1 hereinabove were further tested for their ability to inhibit eukaryotic translation, as follows.
Eukaryotic in vitro translation inhibition was quantified using a TNT® T7 Quick Coupled
Transcription/Translation System with a luciferase T7 control DNA plasmid (Promega), according to the manufacturer protocol. Translation reactions (25 μL) containing variable concentrations of the tested aminoglycoside were incubated at 30° C. for 60 minutes, cooled on ice for 5 minutes, diluted with the dilution reagent and transferred into 96-well plates. In both prokaryotic and eukaryotic systems the luminescence was measured immediately after the addition of the Luciferase Assay Reagent ([…]; Promega), and the light emission was recorded with a FLx800 Fluorescence Microplate Reader (Biotek). The half-maximal inhibition concentration (IC50) values were obtained from fitting concentration-response curves to the data of at least two independent experiments by using Grafit 5 software.

[1] = Toxicity assay in cochlear explants (organ of Corti); format: cell-based; conditions: CBA/J, mouse, cochlear explants (organ of Corti), outer hair cells, concentration at 50% loss of hair cells; 72 hours incubation; read-out: Ototoxicity (Loss of outer hair cells), LC50^Coch
Description: (§1) The ototoxicity potential of Set1 and Set2 compounds was tested with cochlear explants as described, for example, in E. Shulman et al., J. Biol. Chem. 289(4), 2318-2330 (2014). The ototoxicity was measured as the value of AG concentration that is needed for 50% of hair loss from the outer hair cells of the cochlea, as follows.
(§2) The tested compounds were screened for toxicity to auditory hair cells in explants of the organ of Corti from CBA/J mice of postnatal day 2-3. The dissected tissue was placed on a collagen-coated incubation dish as a flat surface preparation in 1 ml of serum-free Basal Medium Eagle (Sigma Aldrich, St. Louis, Mo.) plus serum-free supplement (Invitrogen, Eugene, Oreg.), 1% bovine serum albumin, 2 mM glutamine, 5 mg glucose /ml and 10 units penicillin/ml. The explants were incubated for 5 hours (37° C., 5% CO2) and an additional 1 ml of culture medium was added to submerse the explants. After 48 hours of continued pre-incubation the culture medium was exchanged for new medium containing a specified concentration of the tested compound. Following another 72 hours of incubation, the explants were washed three times with PBS, fixed overnight in 4% (v/v) paraformaldehyde at 4° C., and then permeabilized for 30 minutes with 0.3% (v/v) Triton X-100 in PBS. The specimens were washed three times with PBS for 10 minutes at room temperature and incubated with rhodamine phalloidin (1:100; Life Technologies, Eugene, OR), either for 1 hour at room temperature or overnight at 4° C.
(§3) Following several rinses with PBS, the explants were mounted on microscope slides with Fluoro-Gel (Electron Microscopy Sciences, Hatfield, Pa.) and imaged on a Leica SP5 Confocal TCS Microscope (Leica, Wetzlar, Germany). Hair cells were identified by phalloidin-staining of their stereociliary bundles and circumferential F-actin rings. Their presence or absence was quantified using a 50x oil immersion objective on an epifluorescence Leitz Orthoplan microscope (Leica, Wetzlar, Germany), equipped with a calibrated scale (0.19 mm) superimposed on the field of view. All rows of hair cells were oriented longitudinally within each frame and counted from the apex of the cochlea to its base. Cell counts were entered in a computer program and compared to a normative database (KHRI Cytocochleogram, version 3.0.6, Kresge Hearing Research Institute, University of Michigan, Ann Arbor, Mich., USA) and are reported as percent hair cell loss averaged over the entire length of the explant.

outer hair cells = assay: as above; format: cell-based; conditions: for ototoxicity potential, in words: LC50^Coch in the millimolar range; for morphology of hair cell epithelium: F-actin staining
Description: as §1, §2, §3

[2] = tested on: G542X nonsense mutation (CFTR, premature UGA G stop codon); assay: In vitro readthrough, dual luciferase reporter assay, G542X construct; format: biochemical; conditions: cystic fibrosis, in words, versus parent compound
Description: (§4) The Set1 and Set2 compounds as described in Example 1 hereinabove were tested for their readthrough activity in vitro by using a dual luciferase reporter assay system, as follows.
(§5) DNA fragments derived from PCDH15, CFTR, and IDUA cDNAs, including the tested nonsense mutation or the corresponding WT codon, and four to six upstream and downstream flanking codons, were created by annealing the following pairs of complementary oligonucleotides:
(§6) Fragments were inserted in frame into the polylinker of the p2Luc plasmid between either BamHI and Sad (p.R3X and p.R245X) or Salland Sad (all the rest) restriction sites. For the in vitro readthrough assays, the obtained plasmids, with addition of the tested aminoglycosides were transcribed and translated using the TNT Reticulocyte Lysate Quick Coupled Transcription/Translation System. Luciferase activity was determined after 90 minutes of incubation at 30° C., using the Dual Luciferase Reporter Assay System (Promega™). Stop codon readthrough was calculated as described in Grentzmann et al. RNA 4, 479-486 (1998).
(§7) Reporters carrying R3X nonsense mutation (a premature UGA C stop codon) related to Usher syndrome and G542X (a premature UGA G stop codon) related to Cystic fibrosis were used, and the obtained data is presented in FIGS. 7A-D.

ribosomes = assay: Translational inhibition (TI) in cell-free dual luciferase assay, Renilla of WT plasmid; format: biochemical, rabbit
Description: (§8) A dual luciferase plasmid carrying the Cystic fibrosis transmembrane conductance regulator (CFTR) mutation, S466X, or wild-type sequence, between Renilla and Firefly luciferase was transcribed and translated in vitro using rabbit reticulocytes (TNT mix) and then tested for functional activity of firefly and renilla luciferases. WT plasmids expressed both firefly and renilla luciferases while mutant plasmids expressed only the renilla luciferase due to the stop codon found in the inserted sequence. The readthrough assays were conducted for the tested compounds and controls by adding the compounds to the in vitro transcription/translation reaction mixture.
(i) Translational Inhibition (TI; The extent of the translational inhibition of ribosomes by NB74-MeS and NB124-MeS was calculated using the reduction in the Renilla bioluminescence values of WT plasmid by nonlinear regression curve fit on a plot of Relative Light Units (RLU) versus the log NB74-MeS and NB124-MeS molar concentration (Find ECanything analysis, GraphPad PRISM, version 7).

[3] = tested on: CFTR S466X nonsense mutation; assay: Readthrough activity in cell-free dual luciferase assay, CFTR S466X; format: biochemical, rabbit
Description: as §8
Read-through activity induced by NB74-MeS and NB124-MeS was calculated from the dual luciferase assay data using results from both the WT and mutant plasmids and the following equation: […]
(iii) Readthrough efficiency is presented as fold-increase in Firefly luciferase activity between NB74-MeS and NB124-MeS treated and non-treated mutant plasmid.
(iv) % readthrough of WT is calculated as the percentage of FF/Renilla of the mutant plasmid divided by the FF/Renilla of the WT plasmid.

[4] = tested on: R3X nonsense mutation (PCDH15, premature UGA C stop codon); assay: In vitro readthrough, dual luciferase reporter assay, R3X construct; format: biochemical
Description: as §4, §5, §6, §7

Structure (SMILES): CNC1C(O)C(OC2C(N)CC(N)C(OC3OC(C(C)O)C(O)C(O)C3N)C2O)OCC1(C)O (centres unmarked) [Compound G-418]
LD50 (human fibroblast cells): 0.04 mg/mL

Structure (SMILES): C[C@@H](O)C1O[C@H](O[C@@H]2C(N)C[C@@H](N)C(O)[C@H]2O[C@@H]2O[C@H](CN)[C@H](O)C2O)C(N)[C@@H](O)[C@@H]1O (some centres unmarked) [NB74, reference compound]
IC50 (eukaryotic ribosome): 14.3 µM | CC50 at 72 h [1]: 112 µM

Structure (SMILES): CC(=O)N[C@@H]1CC(N)[C@@H](O[C@H]2OC([C@@H](C)O)[C@@H](O)C(O)C2N)C(O[C@@H]2O[C@H](CN)C(O)C2O)C1O (stereo partly drawn) [NB74-Ac, 6′-(R)-Methyl-5-O-(5″-amino-5″-deoxy-β-D-ribofuranose)-2′,3-amino-1-N-acetamide paromamine]
IC50 (eukaryotic ribosome): 92.3 ± 9.9 µM | ototoxicity potential, in words (outer hair cells): incredibly low ototoxicity potential | CC50 (outer hair cells; concentration at 50% loss of hair cells, 72 hours incubation, read-out: Ototoxicity (Loss of outer hair cells), LC50^Coch): 2040 µM | ototoxicity relative to parent compound (outer hair cells; from LC50^Coch values): decreased in three orders of magnitude | CC50 at 72 h [1]: 2400 µM

IC50 (eukaryotic ribosome): 755 µM | folds less specific to the eukaryotic ribosome than NB74 (eukaryotic ribosome; from IC50 values): 54 folds
Structure (SMILES): C[C@@H](O)C1O[C@H](O[C@@H]2C(N)C[C@@H](NC(=O)c3ccccc3)C(O)C2O[C@@H]2O[C@H](CN)C(O)C2O)C(N)C(O)[C@@H]1O (stereo partly drawn) [NB74-Bz, 6′-(R)-Methyl-5-O-(5″-amino-5″-deoxy-β-D-ribofuranose)-2′,3-amino-1-N-benzamide paromamine]

Structure (SMILES): C[C@@H](O)C1O[C@H](O[C@@H]2C(N)C[C@@H](NS(C)(=O)=O)C(O)C2O[C@@H]2O[C@H](CN)C(O)C2O)C(N)C(O)[C@@H]1O (stereo partly drawn) [NB74-MeS, 6′-(R)-Methyl-5-O-(5″-amino-5″-deoxy-11-D-ribofuranose)-2′,3-amino-1-N-methanesulfonamide paromamine]
readthrough activity, G542X mutation [2]: better activity | IC50 (eukaryotic ribosome): 8.35 µM | folds more specific to the eukaryotic ribosome than NB74 (eukaryotic ribosome; from IC50 values): 1.7 folds | CC50 at 72 h [1]: 61.8 µM | TI80 (ribosomes): 16 µM | IC50 (ribosomes; read-out: TI50 (the source's name)): > 16 µM | Fold Read-through at TI80 ([3]; S466X, relative to MUT control, 0-16 μM range): 9.9 Fold | % Read-through at TI80 ([3]; S466X, relative to WT): 17% | suppression of cystic fibrosis S466X nonsense mutation, in words ([3]; cell-free assay, data not shown): dose-response suppression | folds better readthrough activity in comparison to NB74 [4]: about 1.5 folds

Structure (SMILES): C[C@@H](O)C1O[C@H](O[C@@H]2C(N)C[C@@H](NS(=O)(=O)c3ccccc3)C(O)C2O[C@@H]2O[C@H](CN)C(O)C2O)C(N)C(O)[C@@H]1O (stereo partly drawn) [NB74-PhS, 6′-(R)-Methyl-5-O-(5″-amino-5″-deoxy-II-D-ribofuranose)-2′,3-amino-1-N-phenylsulfonamide paromamine]
IC50 (eukaryotic ribosome): 160 ± 3.6 µM | CC50 at 72 h [1]: 176 µM

Structure (SMILES): C[C@H](N)[C@H]1O[C@@H](O[C@@H]2C(O)[C@H](N)CC(N)[C@H]2O[C@H]2OC([C@@H](C)O)[C@@H](O)[C@H](O)C2N)C(O)[C@H]1O (some centres unmarked) [NB124, reference compound]
morphology of hair cell epithelium (outer hair cells; 15 μM, 72 hours): almost complete | hair cell loss / damage (outer hair cells; 15 μM, 72 hours, basal part of the cochlea): 80-90% | CC50 at 72 h [1]: 11.1 µM

Structure (SMILES): CC(=O)N[C@@H]1CC(N)[C@@H](O[C@H]2OC([C@@H](C)O)[C@@H](O)C(O)C2N)C(O[C@@H]2O[C@H]([C@H](C)N)C(O)C2O)C1O (stereo partly drawn) [NB124-Ac, 6′-(R)-Methyl-5-O-(5-(R)-amino-5-deoxy-β-D-ribofuranose)-2′,3-amino-1-N-acetamide paromamine]
morphology of hair cell epithelium (outer hair cells; 150 μM, 72 hours): remained normal and indistinguishable from the control; also recorded: essentially normal morphology | ototoxicity potential, in words (outer hair cells): incredibly low ototoxicity potential | CC50 at 72 h [1]: 1600 µM

Structure (SMILES): C[C@H](N)[C@H]1O[C@@H](OC2C(O)[C@H](NS(C)(=O)=O)CC(N)[C@H]2O[C@H]2OC([C@@H](C)O)[C@@H](O)C(O)C2N)C(O)C1O (some centres unmarked) [NB124-MeS]
readthrough activity, G542X mutation [2]: better activity
